Laboratory results published in ChEMBL document CHEMBL3856276, “Design, Synthesis, and Biological Evaluation of Novel Tetrahydroprotoberberine Derivatives (THPBs) as Selective α1A-Adrenoceptor Antagonists” (J Med Chem, 2016).

How the values were obtained:
[1] = molecular target: T1, Alpha-1A adrenergic receptor (Homo sapiens) (UniProt P35348); assay: Antagonist activity at human full-length N-terminal SNAP-tagged alpha1A adrenoceptor expressed in HEK293 cells assessed as inhibition of agonist-induced calcium mobilization at 10 uM preincubated for 10 mins followed by agonist addition by fluo-4 AM dye-based assay relative to control; type: functional, cell-based
T1 sequence (whole entry): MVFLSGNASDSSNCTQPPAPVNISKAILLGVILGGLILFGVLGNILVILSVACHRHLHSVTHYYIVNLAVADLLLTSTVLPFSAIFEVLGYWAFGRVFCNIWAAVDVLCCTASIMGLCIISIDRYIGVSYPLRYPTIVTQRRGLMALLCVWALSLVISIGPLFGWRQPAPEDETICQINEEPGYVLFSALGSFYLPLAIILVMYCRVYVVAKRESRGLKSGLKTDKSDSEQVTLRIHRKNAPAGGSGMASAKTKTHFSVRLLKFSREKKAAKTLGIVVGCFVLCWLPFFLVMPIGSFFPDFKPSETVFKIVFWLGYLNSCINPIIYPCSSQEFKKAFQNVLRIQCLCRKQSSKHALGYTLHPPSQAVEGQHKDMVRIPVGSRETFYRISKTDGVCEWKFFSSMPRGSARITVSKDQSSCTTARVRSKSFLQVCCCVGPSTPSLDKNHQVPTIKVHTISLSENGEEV

[2] = molecular target: T2, Alpha-1B adrenergic receptor (Homo sapiens, UniProt P35368)
T2 sequence (P35368 whole entry): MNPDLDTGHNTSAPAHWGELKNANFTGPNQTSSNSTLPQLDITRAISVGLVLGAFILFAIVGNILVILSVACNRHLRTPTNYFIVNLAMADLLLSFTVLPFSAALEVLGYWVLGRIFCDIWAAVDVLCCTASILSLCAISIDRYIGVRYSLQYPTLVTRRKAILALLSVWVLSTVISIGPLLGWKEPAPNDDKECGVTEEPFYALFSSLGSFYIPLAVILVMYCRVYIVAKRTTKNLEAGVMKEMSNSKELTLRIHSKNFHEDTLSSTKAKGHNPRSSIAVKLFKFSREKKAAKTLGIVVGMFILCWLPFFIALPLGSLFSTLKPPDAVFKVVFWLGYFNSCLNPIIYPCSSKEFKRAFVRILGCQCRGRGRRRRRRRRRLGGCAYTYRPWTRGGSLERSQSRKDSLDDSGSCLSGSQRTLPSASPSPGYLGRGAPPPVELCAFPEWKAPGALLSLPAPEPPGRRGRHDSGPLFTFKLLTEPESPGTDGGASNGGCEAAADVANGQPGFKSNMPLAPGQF
Description: Antagonist activity at human full-length N-terminal SNAP-tagged alpha1B adrenoceptor expressed in HEK293 cells assessed as inhibition of agonist-induced calcium mobilization preincubated for 10 mins followed by agonist addition by fluo-4 AM dye-based assay

[3] = molecular target: T3, Alpha-1A adrenergic receptor (Homo sapiens, UniProt P35348)
T3 sequence (P35348 whole entry): T1 sequence (whole entry)
Description: Antagonist activity at human full-length N-terminal SNAP-tagged alpha1A adrenoceptor expressed in HEK293 cells assessed as inhibition of agonist-induced calcium mobilization preincubated for 10 mins followed by agonist addition by fluo-4 AM dye-based assay

Homo sapiens [4] = species on record: Homo sapiens; assay: Selectivity ratio of IC50 for human full-length N-terminal SNAP-tagged alpha1D adrenoceptor to IC50 for human full-length N-terminal SNAP-tagged alpha1A adrenoceptor
Homo sapiens [5] = species on record: Homo sapiens; assay: Selectivity ratio of IC50 for human full-length N-terminal SNAP-tagged alpha1B adrenoceptor to IC50 for human full-length N-terminal SNAP-tagged alpha1A adrenoceptor
[6] = molecular target: T4, Alpha-1D adrenergic receptor (Homo sapiens, UniProt P25100)
T4 sequence (P25100 whole entry): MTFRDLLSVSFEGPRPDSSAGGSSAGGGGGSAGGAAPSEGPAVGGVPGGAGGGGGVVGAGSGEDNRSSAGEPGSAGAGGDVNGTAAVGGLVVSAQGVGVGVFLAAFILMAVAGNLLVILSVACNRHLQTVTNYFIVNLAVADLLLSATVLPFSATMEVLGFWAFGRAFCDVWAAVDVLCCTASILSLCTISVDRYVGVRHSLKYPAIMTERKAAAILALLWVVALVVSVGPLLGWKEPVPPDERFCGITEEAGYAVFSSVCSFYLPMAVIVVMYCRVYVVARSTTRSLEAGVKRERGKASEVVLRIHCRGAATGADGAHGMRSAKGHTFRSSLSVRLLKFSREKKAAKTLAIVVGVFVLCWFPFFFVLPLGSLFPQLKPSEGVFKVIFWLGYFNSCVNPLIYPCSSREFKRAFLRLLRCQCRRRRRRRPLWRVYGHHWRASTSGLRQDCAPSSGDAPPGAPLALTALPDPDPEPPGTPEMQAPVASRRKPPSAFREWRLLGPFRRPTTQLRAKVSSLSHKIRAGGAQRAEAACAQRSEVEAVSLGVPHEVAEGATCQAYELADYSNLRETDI
Description: Antagonist activity at human full-length N-terminal SNAP-tagged alpha1D adrenoceptor expressed in HEK293 cells assessed as inhibition of agonist-induced calcium mobilization preincubated for 10 mins followed by agonist addition by fluo-4 AM dye-based assay

[7] = molecular target: T5, Alpha-1A adrenergic receptor (Rattus norvegicus, UniProt P43140); assay: Displacement of [125I]-BE2254 from Wistar rat alpha1A adrenoceptor after 20 mins
T5 sequence (P43140 whole entry): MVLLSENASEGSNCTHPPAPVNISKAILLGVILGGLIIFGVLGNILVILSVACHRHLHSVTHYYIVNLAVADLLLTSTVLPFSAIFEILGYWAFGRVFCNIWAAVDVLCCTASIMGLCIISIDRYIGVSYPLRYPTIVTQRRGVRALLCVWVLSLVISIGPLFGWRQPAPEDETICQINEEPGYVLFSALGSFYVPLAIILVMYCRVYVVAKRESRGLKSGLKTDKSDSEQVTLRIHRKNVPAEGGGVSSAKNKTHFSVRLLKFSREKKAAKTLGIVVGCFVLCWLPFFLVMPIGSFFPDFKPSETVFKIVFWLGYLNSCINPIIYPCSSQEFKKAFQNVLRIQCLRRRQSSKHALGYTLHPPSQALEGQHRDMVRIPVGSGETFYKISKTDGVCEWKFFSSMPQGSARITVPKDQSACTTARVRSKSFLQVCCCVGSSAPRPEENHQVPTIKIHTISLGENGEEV

Rattus norvegicus [8] = assay: Inhibition of micturition frequency in po dosed Sprague-Dawley rat benign prostatic hyperplasia model administered 20 mins followed by distilled watering loading measured for 2 hrs; type: functional
Rattus norvegicus [9] = assay: Increase in voided volume in po dosed Sprague-Dawley rat benign prostatic hyperplasia model administered 20 mins followed by distilled watering loading measured for 2 hrs; type: functional
[10] = molecular target: T5, Alpha-1A adrenergic receptor; assay: Antagonist activity at alpha1A adrenoceptor in Sprague-Dawley rat urethra assessed as inhibition of norepinephrine-induced smooth muscle contraction after 20 mins
[11] = molecular target: Voltage-gated inwardly rectifying potassium channel KCNH2 (Homo sapiens, UniProt Q12809); assay: Inhibition of human ERG
[12] = Toxicity in patient assessed as orthostatic hypotension; details: human, in vivo
[13] = molecular target: T6, Alpha-1B adrenergic receptor (Rattus norvegicus, UniProt P15823); assay: Antagonist activity at alpha1B adrenoceptor in Sprague-Dawley rat aorta assessed as inhibition of norepinephrine-induced smooth muscle contraction after 20 mins
T6 sequence (P15823 whole entry): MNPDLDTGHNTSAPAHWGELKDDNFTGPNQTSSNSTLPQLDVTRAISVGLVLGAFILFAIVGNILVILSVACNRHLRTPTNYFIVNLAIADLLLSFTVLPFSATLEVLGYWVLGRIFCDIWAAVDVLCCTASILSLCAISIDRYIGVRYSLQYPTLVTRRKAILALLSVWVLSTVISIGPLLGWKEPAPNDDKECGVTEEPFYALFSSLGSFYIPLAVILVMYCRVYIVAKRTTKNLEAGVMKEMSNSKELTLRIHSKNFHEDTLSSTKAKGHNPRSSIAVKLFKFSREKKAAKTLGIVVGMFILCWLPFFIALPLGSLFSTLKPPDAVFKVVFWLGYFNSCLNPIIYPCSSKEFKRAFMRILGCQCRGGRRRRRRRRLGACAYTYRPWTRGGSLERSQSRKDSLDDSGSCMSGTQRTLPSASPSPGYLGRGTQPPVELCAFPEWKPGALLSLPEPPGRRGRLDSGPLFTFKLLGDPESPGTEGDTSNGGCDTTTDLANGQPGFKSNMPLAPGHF

[14] = Selectivity ratio of IC50 for alpha1B adrenoceptor in Sprague-Dawley rat aorta to IC50 for alpha1A adrenoceptor in Sprague-Dawley rat urethra

Chain of Voltage-gated inwardly rectifying potassium channel KCNH2 (Q12809 whole entry): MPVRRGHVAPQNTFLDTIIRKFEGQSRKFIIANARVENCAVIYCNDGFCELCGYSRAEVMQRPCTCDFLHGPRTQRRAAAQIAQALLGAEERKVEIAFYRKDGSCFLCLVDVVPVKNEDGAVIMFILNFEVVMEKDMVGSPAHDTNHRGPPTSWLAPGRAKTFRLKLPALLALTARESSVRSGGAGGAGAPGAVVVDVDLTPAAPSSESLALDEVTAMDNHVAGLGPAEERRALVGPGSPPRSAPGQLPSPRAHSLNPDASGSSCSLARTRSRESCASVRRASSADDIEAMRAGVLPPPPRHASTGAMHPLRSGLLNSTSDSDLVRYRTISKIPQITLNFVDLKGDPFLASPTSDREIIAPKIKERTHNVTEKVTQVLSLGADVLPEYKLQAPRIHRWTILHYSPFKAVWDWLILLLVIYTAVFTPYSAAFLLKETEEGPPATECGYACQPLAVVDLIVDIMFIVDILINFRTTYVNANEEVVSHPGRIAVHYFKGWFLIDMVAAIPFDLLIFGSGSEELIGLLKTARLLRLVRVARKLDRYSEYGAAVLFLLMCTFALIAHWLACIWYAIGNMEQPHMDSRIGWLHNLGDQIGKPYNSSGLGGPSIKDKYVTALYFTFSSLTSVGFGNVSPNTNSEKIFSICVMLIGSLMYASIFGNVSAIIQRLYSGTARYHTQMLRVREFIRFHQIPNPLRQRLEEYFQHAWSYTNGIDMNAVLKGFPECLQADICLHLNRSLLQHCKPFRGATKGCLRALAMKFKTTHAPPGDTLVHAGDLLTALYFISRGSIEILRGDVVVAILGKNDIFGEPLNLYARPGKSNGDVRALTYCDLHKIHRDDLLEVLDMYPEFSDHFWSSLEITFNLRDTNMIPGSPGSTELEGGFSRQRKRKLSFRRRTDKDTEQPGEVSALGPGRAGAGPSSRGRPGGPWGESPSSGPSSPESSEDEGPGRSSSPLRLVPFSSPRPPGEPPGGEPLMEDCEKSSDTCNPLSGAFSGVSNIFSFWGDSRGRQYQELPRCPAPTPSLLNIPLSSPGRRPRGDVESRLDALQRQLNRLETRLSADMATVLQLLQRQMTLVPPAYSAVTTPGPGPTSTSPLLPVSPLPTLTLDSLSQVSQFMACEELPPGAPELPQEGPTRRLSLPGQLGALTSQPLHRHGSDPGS

Compound	inhibition [1]	IC50 [2]	IC50 [3]	Ratio IC50 (Homo sapiens [4])	Ratio IC50 (Homo sapiens [5])	IC50 [6]	other results
c1ccc2c3c([nH]c2c1)CN1CCc2cc4c(cc2[C@@H]1C3)OCO4	99%	> 10000 nM	57.4 nM	> 174	> 174	> 10000 nM	–
COc1cc2c(cc1O)[C@@H]1Cc3ccc(O)c(OC)c3CN1CC2 [STEPHOLIDINE]	–	–	–	–	–	–	Ki [7]: 2240 nM
CCOc1ccccc1OCCN[C@H](C)Cc1ccc(OC)c(S(N)(=O)=O)c1 [TAMSULOSIN]	100%	4.8 nM	–	–	–	1.4 nM	–
COc1ccc2c(c1OC)CN1CCc3cc4c(cc3C1C2)OCO4 (stereo unspecified) [TETRAHYDROBERBERINE]	–	–	–	–	–	–	Ki [7]: 1120 nM
COc1cccc2[nH]c3c(c12)CC1c2cc4c(cc2CCN1C3)OCO4 (stereo unspecified)	100%	> 10000 nM	202 nM	> 19.4	> 19.4	> 10000 nM	–
Fc1ccc2[nH]c3c(c2c1)CC1c2cc4c(cc2CCN1C3)OCO4 (stereo unspecified)	100%	> 10000 nM	254 nM	33.1	> 39.4	8390 nM	–
c1ccc2c3c([nH]c2c1)CN1CCc2cc4c(cc2C1C3)OCO4 (stereo unspecified)	100%	> 10000 nM	125 nM	> 80	> 80	> 10000 nM	–
COc1ccc2c3c([nH]c2c1)CN1CCc2cc4c(cc2C1C3)OCO4 (stereo unspecified)	100%	> 10000 nM	594 nM	> 16.8	> 16.8	> 10000 nM	–
COc1cc2c(cc1O)[C@@H]1Cc3c(Cl)cc(OC)c(O)c3CN1CC2	–	–	–	–	–	–	Ki [7]: 1380 nM
C[C@H](Cc1cc2c(c(C(N)=O)c1)N(CCCO)CC2)NCCOc1ccccc1OCC(F)(F)F [SILODOSIN]	100%	–	–	–	–	–	inhibition (Rattus norvegicus [8]): Dose-dependent effect; Activity (Rattus norvegicus [9]): Dose-dependent effect; IC50 [10]: 0.8 nM; IC50 [11]: 8200 nM; Activity [12]: 2.6%; IC50 [13]: 90.1 nM
CCCOc1cc2c(cc1OC)CCN1Cc3[nH]c4ccc(OC)cc4c3CC21 (stereo unspecified)	100%	> 10000 nM	225 nM	> 44.4	> 44.4	> 10000 nM	–
COc1ccc2[nH]c3c(c2c1)CC1c2cc4c(cc2CCN1C3)OCO4 (stereo unspecified)	99%	> 10000 nM	17.6 nM	229	> 568	4040 nM	minimal effective dose (Rattus norvegicus [8]; read-out: MED): 10 mg/kg; minimal effective dose (Rattus norvegicus [9]; read-out: MED): 3 mg/kg; IC50 [10]: 45.4 nM; IC50 [11]: 16500 nM; Ratio IC50 [14]: >22.02; IC50 [13]: > 1000 nM
